Data as given in patent US7507718B2, “Polymyxin B analogs for LPS detoxification” (Sanofi Pasteur, priority 2005, dated 2009).
Where “and” joins values, the source holds several entries; their conditions need not be identical. Identical values can stand only once. Bridge positions count the residues as written; N and C are the ends. Peptide text beside a SMILES is read from it. I, II: the chains in the order shown.

Key:
IL6 release = test: In vivo cytokine release in sera of CD1 mice (ELISA): IL6; set-up: species or system mouse
Description: (§1) In order to evaluate to which extent the LPS-peptide complex can attenuate LPS-induced toxic effects, the effect of the LPS-peptide complex on the release of pro-inflammatory cytokines is monitored (assessed) in in vitro and in vivo assays. • In vivo: cytokine (IL6 and TNFα) releases in the sera of mice immunized either with LPS or LPS-peptide complex are compared by ELISA. Blood samples are recovered 90 min after SC immunization, which is the optimal time for the release of those cytokines. C3H/HeOuJ, TLR4-/-, C3H/HeN and CD1 mouse strains are tested. The two first are sensitive neither to LPS nor LPS-peptide complex. The third and fourth are both found LPS-sensitive. CD1 mice are found more LPS-peptide complex-sensitive than the others and therefore selected for further experiments retaining the most severe conditions. • In vitro:cytokine (IL6, IL8 and TNFα) releases from human whole blood cell cultures stimulated for 24h at 37° C., with different concentrations of LPS or LPS-peptide complex are compared. 5.4.1. In Vivo Assay
(§2) CD1 mice are administered subcutaneously (SC) (i) either 10 μg of LPS or (ii) 10 μg of LPS-peptide complex. They are bled 90 minutes after injection. IL6 and TNFα releases are measured in the sera by ELISA. […]
(§3) The reaction is stopped by adding 100 μl of 1 M H3PO4 per well. Plates are read at 450 nm.

TNFα release = test: In vivo cytokine release in sera of CD1 mice (ELISA): TNFα; set-up: species or system mouse
Description: as §1, §2, §3

[1] = system: N. meningitidis strain used for LPS production; test: Serum bactericidal activity (SBA) of sera of immunized rabbits; type: in vivo; conditions: individual rabbits
Description: Immunization of three adult New-Zealand rabbits is performed with 100 μg of LPS-peptide complex by intramuscular (IM) and subcutaneous (SC) routes (2×0.5 mL and 5×0.2 mL respectively) in the presence of adjuvant. They receive three injections at 3-week interval; the first one with complete Freund adjuvant (FA), the second and third ones with incomplete Freund adjuvant. They are bled two weeks after the last injection. A control group is immunized with the peptide with adjuvant (71 μg, equivalent to the amount of the peptide in 100 μg of LPS-peptide complex) using the same protocol.
The bactericidal activity of the serum (SBA) samples is evaluated against the N. meningitidis strain used for LPS production as described in Example 5 in the presence of baby rabbit serum as exogenous source of complement.
Sera are heat-inactivated during 30 min at 56° C. In the wells of a 96-well microplate, heat-inactivated sera are then twofold serially diluted (10 times) in Dulbecco's phosphate buffered saline containing Ca^++ and Mg^++ (volume per well: 50 μl).
Twenty five μl of a log phase culture of N. meningitidis grown in Mueller-Hinton broth (4.10^3 CFU/mL) and 25 μl of baby rabbit serum are added to each well. The plate is incubated one hour at 37° C., under shaking.
Fifty μl of the mixture from each well are plated onto Mueller-Hinton agar. Petri dishes are incubated overnight at +37° C. in a 10% CO2 atmosphere.
In each experiment, controls include (i) bacteria and the complement source without antibodies (complement control), (ii) bacteria and heat-inactivated complement, and (iii) bacteria and heat-inactivated complement, in the presence of antibodies.
Bactericidal titre is reported as the highest reciprocal serum dilution at which ≧50% killing of bacteria is observed as compared to the complement control.

[2] = 10 μg SC, sera 90 minutes after injection

CC(C)C[C@@H]1NC(=O)[C@H](CC(C)C)NC(=O)[C@H](CC(C)C)NC(=O)[C@H](Cc2ccccc2)NC(=O)[C@H](CCCCN)NC(=O)[C@@H](NC(=O)[C@H](CCCCN)NC(=O)[C@@H](NC(=O)[C@@H](N)CCCCN)[C@@H](C)O)CSSC[C@@H](C(=O)O)NC(=O)[C@H](CC(C)C)NC(=O)[C@H](CC(C)C)NC(=O)[C@H](CC(C)C)NC(=O)[C@H](Cc2ccccc2)NC(=O)[C@H](CCCCN)NC(=O)[C@@H](NC(=O)[C@H](CCCCN)NC(=O)[C@@H](NC(=O)[C@@H](N)CCCCN)[C@@H](C)O)CSSC[C@@H](C(=O)O)NC1=O [Peptide, NH2-Lys-Thr-Lys-Cys1-Lys-Phe-Leu-Leu-Leu-Cys2-COOH] (I: H-KTKCKFLLLC-OH / II: H-KTKCKFLLLC-OH; disulfide I:4-II:10, I:10-II:4)
IL6 release, Mean (pg/mL) n = 6 (log) (IL6 release; [2]): <1 pg/mL (log)
Induction of IL6 (in words) (IL6 release; peptide alone): does not induce
TNFα release, Mean (pg/mL) n = 6 (log) (TNFα release; [2]): <1 pg/mL (log)
Induction of TNFα (in words) (TNFα release; peptide alone): does not induce
SBA titre, Pre-immunized sera ([1]; baseline before immunization, baby rabbit complement): 4 and 16
SBA titre, Post-dose 3 immunized sera ([1]; 100 μg complex or 71 μg peptide IM+SC with Freund adjuvant, three injections): 16
SBA titre, Post-dose 3 immunized sera adsorbed on LPS ([1]; sera adsorbed on LPS): 4 and 8
